ChEMBL document CHEMBL3399993, “Design and synthesis of novel quinoline-aminopiperidine hybrid analogues as Mycobacterium tuberculosis DNA gyraseB inhibitors” (Bioorg Med Chem, 2015)
In brackets after ≈: the same amount, converted by molar mass. Activity calls are given as the source filed them. The calls are words filed in the database; no cut-off is given here.

Columns and labels:
[1] = Cytotoxicity against mouse RAW264.7 cells assessed as inhibition of cell growth at 50 uM after 48 hrs by MTT assay; assay type: cell-based; details: read-out: GI
[2] = target: DNA gyrase subunit B (Mycobacterium smegmatis, UniProt P0C559); experiment: Inhibition of Mycobacterium smegmatis GyrB ATPase activity expressed in Escherichia coli BL21 (DE3) pLysS cells after 100 mins by inorganic phosphate release detection based malachite green reagent assay; parameters: species or system Mycolicibacterium smegmatis
DNA gyrase subunit B, sequence (P0C559 whole entry): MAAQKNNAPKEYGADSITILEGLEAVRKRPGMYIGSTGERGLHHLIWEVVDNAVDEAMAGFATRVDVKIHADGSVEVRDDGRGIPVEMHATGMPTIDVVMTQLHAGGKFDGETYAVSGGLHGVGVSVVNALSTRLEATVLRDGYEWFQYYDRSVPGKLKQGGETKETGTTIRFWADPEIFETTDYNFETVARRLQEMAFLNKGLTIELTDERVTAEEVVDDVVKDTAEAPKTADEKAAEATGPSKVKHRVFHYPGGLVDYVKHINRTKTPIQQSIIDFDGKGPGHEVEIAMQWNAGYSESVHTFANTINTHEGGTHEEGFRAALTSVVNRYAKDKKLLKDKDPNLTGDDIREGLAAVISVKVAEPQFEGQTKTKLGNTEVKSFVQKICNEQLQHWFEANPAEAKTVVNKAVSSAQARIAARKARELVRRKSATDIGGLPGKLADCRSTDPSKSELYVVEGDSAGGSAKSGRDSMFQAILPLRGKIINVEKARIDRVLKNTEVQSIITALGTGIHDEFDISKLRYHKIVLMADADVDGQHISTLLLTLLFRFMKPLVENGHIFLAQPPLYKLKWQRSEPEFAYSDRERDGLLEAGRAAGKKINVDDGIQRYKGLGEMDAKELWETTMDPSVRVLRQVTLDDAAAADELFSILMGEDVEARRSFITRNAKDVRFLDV

[3] = target: DNA gyrase subunit A/DNA gyrase subunit B (Mycobacterium tuberculosis (strain ATCC 25618 / H37Rv), UniProt P9WG45+P9WG47); experiment: Inhibition of Mycobacterium tuberculosis GyrA/GyrB using relaxed pBR322 substrate incubated for 30 mins by ethidium bromide staining and electrophoresis based DNA supercoiling assay
DNA gyrase subunit A/DNA gyrase subunit B, sequence (P9WG45 whole entry): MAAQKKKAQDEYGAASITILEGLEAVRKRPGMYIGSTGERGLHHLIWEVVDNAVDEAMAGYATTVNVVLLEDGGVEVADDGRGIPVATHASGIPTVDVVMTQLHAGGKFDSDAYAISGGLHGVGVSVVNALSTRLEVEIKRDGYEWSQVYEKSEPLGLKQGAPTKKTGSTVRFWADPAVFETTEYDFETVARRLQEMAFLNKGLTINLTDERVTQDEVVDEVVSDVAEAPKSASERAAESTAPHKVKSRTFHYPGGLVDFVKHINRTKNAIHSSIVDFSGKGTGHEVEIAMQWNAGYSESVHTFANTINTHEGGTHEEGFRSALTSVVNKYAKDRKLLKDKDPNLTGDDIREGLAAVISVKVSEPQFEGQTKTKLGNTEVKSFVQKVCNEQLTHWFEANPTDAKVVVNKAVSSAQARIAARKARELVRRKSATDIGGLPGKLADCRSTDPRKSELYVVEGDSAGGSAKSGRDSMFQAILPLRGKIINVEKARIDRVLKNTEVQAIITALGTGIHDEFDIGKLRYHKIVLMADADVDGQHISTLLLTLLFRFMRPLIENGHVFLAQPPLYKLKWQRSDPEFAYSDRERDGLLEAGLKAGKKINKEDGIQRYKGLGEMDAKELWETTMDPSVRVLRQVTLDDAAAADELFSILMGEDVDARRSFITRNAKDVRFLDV
DNA gyrase subunit A/DNA gyrase subunit B, sequence (P9WG47 whole entry): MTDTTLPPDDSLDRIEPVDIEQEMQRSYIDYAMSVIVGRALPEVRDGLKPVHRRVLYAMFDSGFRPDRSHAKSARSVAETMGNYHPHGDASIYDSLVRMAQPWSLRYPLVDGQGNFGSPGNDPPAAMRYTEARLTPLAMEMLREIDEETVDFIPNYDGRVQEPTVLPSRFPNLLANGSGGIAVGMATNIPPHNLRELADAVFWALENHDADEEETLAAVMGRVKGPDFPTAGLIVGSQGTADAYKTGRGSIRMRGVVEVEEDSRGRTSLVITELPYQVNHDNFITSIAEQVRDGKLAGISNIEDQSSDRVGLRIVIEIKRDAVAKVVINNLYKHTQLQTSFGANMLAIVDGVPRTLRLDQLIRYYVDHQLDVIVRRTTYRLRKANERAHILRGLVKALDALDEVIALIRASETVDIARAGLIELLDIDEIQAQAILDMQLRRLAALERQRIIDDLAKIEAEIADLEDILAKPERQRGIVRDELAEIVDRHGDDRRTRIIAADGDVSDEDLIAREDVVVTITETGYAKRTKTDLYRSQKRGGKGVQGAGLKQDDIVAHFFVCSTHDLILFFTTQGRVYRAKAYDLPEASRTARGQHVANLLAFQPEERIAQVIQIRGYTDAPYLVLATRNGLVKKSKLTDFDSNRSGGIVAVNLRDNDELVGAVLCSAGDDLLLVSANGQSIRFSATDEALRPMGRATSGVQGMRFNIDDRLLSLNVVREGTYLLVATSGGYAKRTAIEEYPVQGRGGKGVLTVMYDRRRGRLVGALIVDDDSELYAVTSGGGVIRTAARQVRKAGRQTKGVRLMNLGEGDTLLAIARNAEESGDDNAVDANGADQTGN

[4] = tested on: Mycobacterium tuberculosis; experiment: Antimycobacterial activity against Mycobacterium tuberculosis H37Rv ATCC 27294 incubated for 7 days by microplate alamar blue assay method; assay type: functional; details: H37Rv ATCC 27294, 168 h
[5] = organism: Danio rerio; experiment: Cardiotoxic inhibition of ERG channel in Zebrafish assessed as change in heart rate of ventricles at 1 uM to 30 uM after 4 hrs; assay type: organism-based; details: in vivo
[6] = target: DNA gyrase subunit B (Escherichia coli) (UniProt P0AES6); experiment: Inhibition of Escherichia coli GyrB at 100 uM
[7] = organism: Danio rerio; experiment: Cardiotoxic inhibition of ERG channel in Zebrafish assessed as change in heart rate of atria at 1 uM to 30 uM after 4 hrs; assay type: organism-based; details: in vivo
[8] = target: DNA gyrase subunit B (Staphylococcus aureus) (UniProt P0A0K8); experiment: Inhibition of Staphylococcus aureus GyrB at 100 uM
DNA gyrase subunit B (Staphylococcus aureus), sequence (P0A0K8 2-644 limits assumed): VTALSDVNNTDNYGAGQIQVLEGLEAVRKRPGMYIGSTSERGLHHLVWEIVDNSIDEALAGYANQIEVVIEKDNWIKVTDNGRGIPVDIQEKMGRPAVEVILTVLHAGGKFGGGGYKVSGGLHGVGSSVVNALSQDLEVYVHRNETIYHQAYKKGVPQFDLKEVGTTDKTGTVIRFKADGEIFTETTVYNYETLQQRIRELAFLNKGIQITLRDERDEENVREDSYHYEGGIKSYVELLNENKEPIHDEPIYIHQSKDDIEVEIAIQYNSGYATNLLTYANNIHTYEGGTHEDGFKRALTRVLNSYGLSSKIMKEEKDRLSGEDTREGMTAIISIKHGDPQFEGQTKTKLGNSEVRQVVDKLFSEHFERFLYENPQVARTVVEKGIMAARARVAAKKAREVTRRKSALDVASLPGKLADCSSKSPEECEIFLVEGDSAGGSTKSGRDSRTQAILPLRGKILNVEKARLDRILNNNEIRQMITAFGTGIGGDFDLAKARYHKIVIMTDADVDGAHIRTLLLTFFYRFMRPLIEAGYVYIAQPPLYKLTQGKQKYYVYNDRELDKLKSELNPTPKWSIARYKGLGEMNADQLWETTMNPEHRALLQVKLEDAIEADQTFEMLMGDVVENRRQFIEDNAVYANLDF

[9] = organism: Danio rerio; experiment: Cardiotoxic inhibition of ERG channel in Zebrafish assessed as change in atrio ventricular beats ratio at 1 uM to 30 uM after 4 hrs; assay type: organism-based, Cardiac ventricle; details: in vivo
[10] = target: DNA gyrase subunit B (Mycobacterium smegmatis) (UniProt P0C559); experiment: Binding affinity to Mycobacterium smegmatis GyrB assessed as increase in protein-compound complex stability by measuring right side positive shift of melting temperature by SYPRO-orange dye based differential scanning fluorimetry; details: Mycolicibacterium smegmatis
DNA gyrase subunit B (Mycobacterium smegmatis), sequence (P0C559 2-675 limits assumed): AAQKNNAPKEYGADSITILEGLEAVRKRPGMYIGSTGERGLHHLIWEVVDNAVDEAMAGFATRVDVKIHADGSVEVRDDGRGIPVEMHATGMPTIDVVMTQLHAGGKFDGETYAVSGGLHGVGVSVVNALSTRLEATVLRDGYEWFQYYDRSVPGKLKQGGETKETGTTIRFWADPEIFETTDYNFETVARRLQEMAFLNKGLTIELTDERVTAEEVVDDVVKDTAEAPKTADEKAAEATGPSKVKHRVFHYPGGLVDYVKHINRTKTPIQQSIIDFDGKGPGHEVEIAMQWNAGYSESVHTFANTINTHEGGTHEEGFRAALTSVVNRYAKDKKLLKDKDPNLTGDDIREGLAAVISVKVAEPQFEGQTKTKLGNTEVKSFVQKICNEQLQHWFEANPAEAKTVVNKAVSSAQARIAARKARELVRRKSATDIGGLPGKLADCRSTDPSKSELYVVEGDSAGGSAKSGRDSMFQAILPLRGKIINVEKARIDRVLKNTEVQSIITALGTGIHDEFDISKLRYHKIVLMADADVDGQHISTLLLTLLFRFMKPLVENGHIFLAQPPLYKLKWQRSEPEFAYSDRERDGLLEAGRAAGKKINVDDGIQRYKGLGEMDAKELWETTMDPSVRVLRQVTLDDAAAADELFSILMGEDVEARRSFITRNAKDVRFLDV

[11] = organism: Danio rerio; experiment: Cardiotoxic inhibition of ERG channel in Zebrafish assessed as change in atrio ventricular beats ratio at 1 to 10 uM after 4 hrs; assay type: organism-based, Cardiac ventricle; details: in vivo
[12] = organism: Danio rerio; experiment: Cardiotoxic inhibition of ERG channel in Zebrafish assessed as change in heart rate of ventricles at 1 uM to 10 uM after 4 hrs; assay type: organism-based; details: in vivo
[13] = organism: Danio rerio; experiment: Cardiotoxic inhibition of ERG channel in Zebrafish assessed as change in heart rate of atria at 1 uM to 10 uM after 4 hrs; assay type: organism-based; details: in vivo
[14] = organism: Danio rerio; experiment: Cardiotoxic inhibition of ERG channel in Zebrafish assessed as change in atrio ventricular beats ratio at 30 uM after 4 hrs; assay type: organism-based, Cardiac ventricle; details: in vivo
[15] = organism: Danio rerio; experiment: Cardiotoxic inhibition of ERG channel in Zebrafish assessed as change in heart rate of ventricles at 30 uM after 4 hrs; assay type: organism-based; details: in vivo
[16] = organism: Danio rerio; experiment: Cardiotoxic inhibition of ERG channel in Zebrafish assessed as change in heart rate of atria at 30 uM after 4 hrs; assay type: organism-based; details: in vivo
[17] = organism: Danio rerio; experiment: Cardiotoxic inhibition of ERG channel in Zebrafish assessed as change in heart rate of atria at 20 uM after 4 hrs; assay type: organism-based; details: in vivo
[18] = organism: Danio rerio; experiment: Cardiotoxic inhibition of ERG channel in Zebrafish assessed as change in atrio ventricular beats ratio at 20 uM after 4 hrs; assay type: organism-based, Cardiac ventricle; details: in vivo
[19] = organism: Danio rerio; experiment: Cardiotoxic inhibition of ERG channel in Zebrafish assessed as change in heart rate of ventricles at 20 uM after 4 hrs; assay type: organism-based; details: in vivo

SMILES | inhibition at 48 h, 50 µM [1] | IC50 [2] | IC50 [3] | MIC [4] | also measured
COc1ccc(NC(=S)NC2CCN(c3cc(C)nc4ccc(OC)cc34)CC2)cc1 | 31.8% | 10.1 µM | 6.17 µM | 15.8 µM (≈ 6.92 µg/mL) | –
Cc1cc(N2CCC(NC(=S)Nc3ccc(Cl)cc3)CC2)c2cc(F)ccc2n1 | 32.3% | 41.1 µM | 21.5 µM | 31.7 µM (≈ 13.6 µg/mL) | –
Cc1cc(N2CCC(NC(=O)Nc3ccc(Cl)cc3)CC2)c2ccccc2n1 | 40.1% | 12.9 µM | 8.2 µM | 7.91 µM (≈ 3.12 µg/mL) | –
COc1ccc(NC(=S)NC2CCN(c3cc(C)nc4ccc(F)cc34)CC2)cc1 | 21.3% | 39.5 µM | 17.8 µM | 31.7 µM (≈ 13.4 µg/mL) | –
COc1ccc2nc(C)cc(N3CCC(NC(=O)Nc4ccccc4)CC3)c2c1 | 66.5% | 12.2 µM | 9.32 µM | 32 µM (≈ 12.5 µg/mL) | –
Cc1cc(N2CCC(NC(=O)Nc3ccc(Cl)cc3)CC2)c2cc(C(F)(F)F)ccc2n1 | 29.1% | 34 µM | 17.3 µM | 48.5 µM (≈ 22.5 µg/mL) | –
Cc1cc(N2CCC(NC(=O)Nc3ccccc3)CC2)c2cc(F)ccc2n1 | 48.9% | 20.5 µM | 9.84 µM | 33 µM (≈ 12.5 µg/mL) | –
COc1ccc2nc(C)cc(N3CCC(NC(=S)Nc4ccc(Cl)cc4)CC3)c2c1 | 29.7% | 0.95 µM | 0.62 µM | 3.47 µM (≈ 1.53 µg/mL) | Activity [5]: Non-toxic; inhibition [6]: inactive; Activity [7]: Non-toxic; inhibition [8]: inactive; Activity [9]: Non-toxic; ΔTm [10]: 3.1 °C
COc1ccc(NC(=O)NC2CCN(c3cc(C)nc4ccc(C(F)(F)F)cc34)CC2)cc1 | 29% | 41.2 µM | 19.8 µM | 54.3 µM (≈ 24.9 µg/mL) | –
COc1ccc2nc(C)cc(N3CCC(NC(=O)Nc4ccc(F)cc4)CC3)c2c1 | 17.3% | 18.5 µM | 14.8 µM | 25.7 µM (≈ 10.5 µg/mL) | –
COc1ccc2nc(C)cc(N3CCC(NC(=O)Nc4ccc(Cl)cc4)CC3)c2c1 | 42.4% | 16.2 µM | 14.3 µM | 17.4 µM (≈ 7.37 µg/mL) | –
COc1ccc(NC(=S)NC2CCN(c3cc(C)nc4ccc(C(F)(F)F)cc34)CC2)cc1 | 41.8% | 32.6 µM | 34.5 µM | 66.9 µM (≈ 31.7 µg/mL) | –
Cc1ccc(NC(=O)NC2CCN(c3cc(C)nc4ccc(F)cc34)CC2)cc1 | 39.7% | 15 µM | 8.83 µM | 16 µM (≈ 6.27 µg/mL) | –
Cc1cc(N2CCC(NC(=S)Nc3ccc(Cl)cc3)CC2)c2ccccc2n1 | 20.8% | 12.3 µM | 8.12 µM | 15.2 µM (≈ 6.25 µg/mL) | –
Cc1ccc(NC(=O)NC2CCN(c3cc(C)nc4ccccc34)CC2)cc1 | 51.4% | 20.5 µM | 14.8 µM | 24.1 µM (≈ 9.04 µg/mL) | –
Cc1cc(N2CCC(NC(=S)Nc3ccc(Cl)cc3)CC2)c2cc(C(F)(F)F)ccc2n1 | 11.8% | 16.5 µM | 4.12 µM | 30.7 µM (≈ 14.7 µg/mL) | –

SMILES | inhibition at 48 h, 50 µM [1] | IC50 [2] | IC50 [3] | MIC [4] | also measured
COc1ccc(NC(=O)NC2CCN(c3cc(C)nc4ccccc34)CC2)cc1 | 49.5% | 22 µM | 18.5 µM | 32 µM (≈ 12.5 µg/mL) | –
COc1ccc(NC(=O)NC2CCN(c3cc(C)nc4ccc(F)cc34)CC2)cc1 | 49.7% | 10.1 µM | 7.62 µM | 7.65 µM (≈ 3.12 µg/mL) | –
COc1ccc2nc(C)cc(N3CCC(NC(=S)Nc4ccc(C)cc4)CC3)c2c1 | 44.9% | 11.1 µM | 7.94 µM | 7.28 µM (≈ 3.06 µg/mL) | Activity [11]: Non-toxic; Activity [12]: Non-toxic; Activity [13]: Non-toxic; Activity [14]: Toxic; Activity [15]: Toxic; Activity [16]: Toxic
Cc1cc(N2CCC(NC(=S)Nc3ccc([N+](=O)[O-])cc3)CC2)c2cc(F)ccc2n1 | 40.7% | 56.1 µM | 25.5 µM | 63.3 µM (≈ 27.8 µg/mL) | –
CC(C)(C)c1ccc(C(O)CCCN2CCC(C(O)(c3ccccc3)c3ccccc3)CC2)cc1 (stereo not given) [TERFENADINE] | – | – | – | – | Activity [17]: Toxic; Activity [18]: Toxic; Activity [19]: Toxic
Cc1cc(N2CCC(NC(=O)Nc3ccc(F)cc3)CC2)c2cc(C(F)(F)F)ccc2n1 | 39.8% | 19.8 µM | 11.8 µM | 24.9 µM (≈ 11.1 µg/mL) | –
Cc1cc(N2CCC(NC(=S)Nc3ccc(F)cc3)CC2)c2ccccc2n1 | 32.9% | 29.8 µM | 16.7 µM | 36.1 µM (≈ 14.3 µg/mL) | –
Cc1ccc(NC(=S)NC2CCN(c3cc(C)nc4ccccc34)CC2)cc1 | 21.6% | 7.26 µM | 2.66 µM | 15.7 µM (≈ 6.12 µg/mL) | –
Cc1cc(N2CCC(NC(=S)Nc3ccc([N+](=O)[O-])cc3)CC2)c2ccccc2n1 | 31.8% | 3.77 µM | 1.21 µM | 7.65 µM (≈ 3.22 µg/mL) | –
Cc1ccc(NC(=O)NC2CCN(c3cc(C)nc4ccc(C(F)(F)F)cc34)CC2)cc1 | 16.2% | 16.6 µM | 9.2 µM | 28.1 µM (≈ 12.4 µg/mL) | –
Cc1cc(N2CCC(NC(=S)Nc3ccc(F)cc3)CC2)c2cc(C(F)(F)F)ccc2n1 | 50.7% | 48.5 µM | 22.8 µM | 66.5 µM (≈ 30.8 µg/mL) | –
Cc1cc(N2CCC(NC(=O)Nc3ccc(F)cc3)CC2)c2ccccc2n1 | 49.4% | 34.9 µM | 19.7 µM | 34.1 µM (≈ 12.9 µg/mL) | –
Cc1cc(N2CCC(NC(=O)Nc3ccc(Cl)cc3)CC2)c2cc(F)ccc2n1 | 49.7% | 49 µM | 29.6 µM | 50.8 µM (≈ 21 µg/mL) | –
COc1ccc(NC(=S)NC2CCN(c3cc(C)nc4ccccc34)CC2)cc1 | 21.9% | 19.4 µM | 13.5 µM | 30.2 µM (≈ 12.3 µg/mL) | –
Cc1cc(N2CCC(NC(=S)Nc3ccccc3)CC2)c2cc(C(F)(F)F)ccc2n1 | 23.3% | 39 µM | 29.4 µM | 35.8 µM (≈ 15.9 µg/mL) | –
